Data reported in patent US8470845B2, “Analgesic and methods of treating pain” (Toray Industries, Inc., priority 2004, dated 2013).
Counter-ions that a name gives are not always drawn.

system: male ddY mouse; assay: Analgesic activity test by mouse acetic acid writhing method; type: in vivo; details: Mus musculus, subcutaneous, 15 minutes before i.p. 0.6% acetic acid; dosage to halve the number of writhing response; read-out: ED50
Protocol: To each male ddY mouse, each test compound or the vehicle was subcutaneously administered in an administration volume of 0.1 mL/10 g body weight. Fifteen minutes later, 0.1 mL/10 g body weight of aqueous 0.6% (v/v) acetic acid solution was intraperitoneally administered. From 10 minutes after the administration of the acetic acid solution, the number of writhing response (i.e., the behavior to bend the body backward and/or twist the body) during 10 minutes was counted, and the analgesic activity was evaluated based on the number of writhing response. […] 10% Aqueous dimethylsulfoxide (DMSO) was used as a vehicle for test compounds 1, 2, 3, 4, 5, 6, 7, 8, 9, 10, 11, 12, 13, 14, 15, 16, 17, 18, 19, 20, 21 and 22. 0.1% Citric acid/aqueous 5% xylitol was used as a vehicle for test compounds 10f.

| Structure (SMILES) | ED50 [mg/kg] |
| --- | --- |
| O=C1C(Cc2ccccc2)CCN1[C@H]1CC[C@@]2(O)[C@H]3Cc4ccc(O)c5c4[C@@]2(CCN3CC2CC2)[C@H]1O5 (mixture of isomers) [Compound 4, 1-(17-cyclopropylmethyl-4,5α-epoxy-3,14-dihydroxymorphinan-6α-yl)-3-benzyl-pyrrolidine-2-one (diastereomer mixture).tartaric acid salt] | 0.26 |
| Cl.O=C1CCCN1[C@@H]1CC[C@@]2(O)[C@H]3Cc4ccc(O)c5c4[C@@]2(CCN3CC2CC2)[C@H]1O5 [Compound 1, 1-(17-cyclopropylmethyl-4,5α-epoxy-3,14-dihydroxy-morphinan-6β-yl)pyrrolidine-2-one-hydrochloric acid salt] | 2.62 |
| Cl.O=C1CCCN1[C@H]1CC[C@@]2(O)[C@H]3Cc4ccc(O)c5c4[C@@]2(CCN3CC2CC2)[C@H]1O5 [Compound 2, 1-(17-cyclopropylmethyl-4,5α-epoxy-3,14-dihydroxy-morphinan-6α-yl)pyrrolidine-2-one-hydrochloric acid salt] | 0.95 |
| O=C1C(Cc2ccccc2)CCN1[C@@H]1CC[C@@]2(O)[C@H]3Cc4ccc(O)c5c4[C@@]2(CCN3CC2CC2)[C@H]1O5 (stereo partly drawn) [Compound 3, 1-(17-cyclopropylmethyl-4,5α-epoxy-3,14-dihydroxy-morphinan-6β-yl)-3-benzyl-pyrrolidine-2-one.tartaric acid salt] | 0.28 |
| O=C1c2ccccc2CN1[C@@H]1CC[C@@]2(O)[C@H]3Cc4ccc(O)c5c4[C@@]2(CCN3CC2CC2)[C@H]1O5 [Compound 5, 2-(17-cyclopropylmethyl-4,5α-epoxy-3,14-dihydroxy-morphinan-6β-yl)-2,3-dihydroisoindol-1-one.tartaric acid salt] | 0.071 |
| CCC/C=C1\CC(=O)N([C@@H]2CC[C@@]3(O)[C@H]4Cc5ccc(O)c6c5[C@@]3(CCN4CC3CC3)[C@H]2O6)C1=O [Compound 6, N-(17-cyclopropylmethyl-4,5α-epoxy-3,14-dihydroxy-morphinan-6β-yl)-2-butylidene succinic imide.tartaric acid salt] | 0.48 |
| C=CCN1CC[C@]23c4c5ccc(O)c4O[C@H]2[C@H](N2C(=O)c4ccc(F)cc4C2=O)CC[C@@]3(O)[C@H]1C5 [Compound 7, N-(17-allyl-4,5α-epoxy-3,14-dihydroxymorphinan-6β-yl)-4-fluorophthalimide.tartaric acid salt] | 0.033 |
| C=CCN1CC[C@]23c4c5ccc(O)c4O[C@H]2[C@@H](N2C(=O)c4cccc(F)c4C2=O)CC[C@@]3(O)[C@H]1C5 [Compound 8, N-(17-allyl-4,5α-epoxy-3,14-dihydroxy-morphinan-6α-yl)-3-fluorophthal-imide.tartaric acid salt] | 0.03 |
| C=CCN1CC[C@]23c4c5ccc(O)c4O[C@H]2[C@@H](N2C(=O)c4ccccc4C2=O)CC[C@@]3(O)[C@H]1C5 [Compound 9, N-(17-allyl-4,5α-epoxy-3,14-dihydroxymorphinan-6α-yl)-phthalimide.tartaric acid salt] | 0.14 |
| O=C1c2ccccc2C(=O)N1[C@@H]1CC[C@@]2(O)[C@H]3Cc4ccc(O)c5c4[C@@]2(CCN3CC2CC2)[C@H]1O5 [Compound 10, N-(17-cyclopropylmethyl-4,5α-epoxy-3,14-dihydroxymorphinan-6β-yl)-phthalimide.hydrochloric acid salt] | 0.031 |
| Cc1ccc2c(c1)C(=O)N([C@@H]1CC[C@@]3(O)[C@H]4Cc5ccc(O)c6c5[C@@]3(CCN4CC3CC3)[C@H]1O6)C2=O [Compound 11, N-(17-cyclopropylmethyl-4,5α-epoxy-3,14-dihydroxy-morphinan-6β-yl)-4-methylphthalimide.hydrochloric acid salt] | 0.045 |
| O=C1c2ccc(Cl)cc2C(=O)N1[C@@H]1CC[C@@]2(O)[C@H]3Cc4ccc(O)c5c4[C@@]2(CCN3CC2CC2)[C@H]1O5 [Compound 12, N-(17-cyclopropylmethyl-4,5α-epoxy-3,14-dihydroxy-morphinan-6β-yl)-4-chlorophthalimide.tartaric acid salt] | 0.29 |
| O=C1c2ccc(F)cc2C(=O)N1[C@@H]1CC[C@@]2(O)[C@H]3Cc4ccc(O)c5c4[C@@]2(CCN3CC2CC2)[C@H]1O5 [Compound 13, N-(17-cyclopropylmethyl-4,5α-epoxy-3,14-dihydroxy-morphinan-6β-yl)-4-fluorophthalimide.tartaric acid salt] | 0.037 |
| O=C1c2cccc(F)c2C(=O)N1[C@@H]1CC[C@@]2(O)[C@H]3Cc4ccc(O)c5c4[C@@]2(CCN3CC2CC2)[C@H]1O5 [Compound 14, N-(17-cyclopropylmethyl-4,5α-epoxy-3,14-dihydroxy-morphinan-6β-yl)-3-fluorophthalimide.tartaric acid salt] | 0.034 |
| Cc1cccc2c1C(=O)N([C@@H]1CC[C@@]3(O)[C@H]4Cc5ccc(O)c6c5[C@@]3(CCN4CC3CC3)[C@H]1O6)C2=O [Compound 15, N-(17-cyclopropylmethyl-4,5α-epoxy-3,14-dihydroxy-morphinan-6β-yl)-3-methylphthalimide.tartaric acid salt] | 0.03 |
| O=C1c2cc3ccccc3cc2C(=O)N1[C@@H]1CC[C@@]2(O)[C@H]3Cc4ccc(O)c5c4[C@@]2(CCN3CC2CC2)[C@H]1O5 [Compound 16, N-(17-cyclopropylmethyl-4,5α-epoxy-3,14-dihydroxy-morphinan-6β-yl)naphthalenedicarboxylic imide.hydrochloric acid salt] | 0.31 |
| O=C1c2cc(Cl)c(Cl)cc2C(=O)N1[C@@H]1CC[C@@]2(O)[C@H]3Cc4ccc(O)c5c4[C@@]2(CCN3CC2CC2)[C@H]1O5 [Compound 17, N-[17-(cyclopropylmethyl)-4,5α-epoxy-3,14-dihydroxymorphinan-6β-yl]]-4,5-dichlorophthalimide.tartaric acid salt] | 0.27 |
| O=C1CCC(=O)N1[C@@H]1CC[C@@]2(O)[C@H]3Cc4ccc(O)c5c4[C@@]2(CCN3CC2CC2)[C@H]1O5 [Compound 21, N-(17-cyclopropylmethyl-4,5α-epoxy-3,14-dihydroxy-morphinan-6β-yl)-succinic imide.tartaric acid salt] | 3.37 |
| O=C1C=CC(=O)N1[C@@H]1CC[C@@]2(O)[C@H]3Cc4ccc(O)c5c4[C@@]2(CCN3CC2CC2)[C@H]1O5 [Compound 22, N-(17-cyclopropylmethyl-4,5α-epoxy-3,14-dihydroxy-morphinan-6β-yl)-maleic imide.tartaric acid salt] | 2.18 |

same assay, conditions: subcutaneous, 15 minutes before i.p. 0.6% acetic acid; dosage to halve the number of writhing response

| Structure (SMILES) | ED50 [mg/kg] |
| --- | --- |
| O=C(O)C(O)C(O)C(=O)O.O=C1c2ccccc2C(=O)N1[C@@H]1CC[C@@]2(O)[C@H]3Cc4ccc(O)c5c4[C@@]2(CCN3CC2CC2)[C@H]1O5 [Compound 18, N-(17-cyclopropylmethyl-4,5α-epoxy-3,14-dihydroxy-morphinan-6β-yl)-phthalimide.tartaric acid salt] | 0.019 |
| O=C(O)C(O)C(O)C(=O)O.O=C1C2=C(CCCC2)C(=O)N1[C@@H]1CC[C@@]2(O)[C@H]3Cc4ccc(O)c5c4[C@@]2(CCN3CC2CC2)[C@H]1O5 [Compound 19, N-(17-cyclopropylmethyl-4,5α-epoxy-3,14-dihydroxy-morphinan-6β-yl)-3,4,5,6-tetrahydrophthalimide.tartaric acid salt] | 0.032 |
| O=C(O)C(O)C(O)C(=O)O.Oc1ccc2c3c1O[C@H]1[C@H](N4CCCC4)CC[C@@]4(O)[C@@H](C2)N(CC2CC2)CC[C@]314 [Compound 20, 17-cyclopropylmethyl-4,5α-epoxy-6β-(pyrrolidine-1-yl)-morphinan-3,14-diol.tartaric acid salt, reference compound] | >10 |
